Data: patent publication EP2714063B1, “VEGFR2/3-ACTIVATING AGENT FOR USE IN THE TREATMENT OF COGNITIVE DYSFUNCTIONS” (priority 2011, dated 2012)

Key:
hippocampal neurons = assay: Morphometric analyses (total dendritic length, Sholl analysis, spine density) of cultured neurons; assay type: cell-based, C57BL/6 mice
Experimental: Hippocampal cultures and transfection. Hippocampal neurons from newborn C57BL/6 mice were cultured as known in the art. Experiments were done after a culturing period of 10 to 14 days in vitro (DIV). DNA transfection was done on DIV8 using Lipofectamine 2000 (Invitrogen, San Diego, CA). For the studies on dendrite morphology, neurons were analyzed 4-5 days after transfection.
Morphometric analyses. For 3D Sholl Analysis, total dendritic length and spine morphology were calculated using Object-Image freeware software with a specific set of macros (written by Dr. E. Ruthazer, McGill University, Quebec). Briefly, a z-Stack acquisition was imported, calibrated in Object-Image and manually traced. Total dendritic length was then computed. For Sholl analysis, the shell interval was set at 5 µm. All analyses were performed blind. In all in vitro experiments, for each condition, a minimum of 12 neurons from three independent preparations was analyzed. For the Golgi staining quantifications of 20 neurons for each condition from 4 different injected animals per viral construct were traced and analyzed.
Immunocytochemistry. […] For the morphometric analyses, fluorescence images were acquired using a confocal laser-scanning microscope TCS SP2 (Leica, Mannheim, Germany) equipped with an inverted fluorescence microscope DM IRE2 (Leica) and Leica confocal scan software. […]

VEGFD = assay type: cell-based, C57BL/6 mice; conditions: treatment from DIV5 to DIV10; 1 µM TTX, 10 µM MK801, 10 µM nifedipine
Experimental: RNA extraction and cDNA synthesis. Total RNA was isolated at DIV10 to DIV13 from hippocampal primary neuron cultures or isolated brain tissues with Rneasy Mini Kit (Qiagen, Hilden, Germany) including an optional Dnase I treatment at room temperature for 15 min according to manufacturer's instructions (Qiagen). 1.2 µg of extracted RNA was reverse transcribed into first strand cDNA using High Capacity cDNA Reverse Transcription kit (Applied Biosystems, Foster City, CA).
Real time quantitative PCR. Quantitative reverse transcriptase PCR (qRT-PCR) was done on an ABI7300 thermal cycler using Universal qRT-PCR master mix with TaqMan Gene Expression Assays for the indicated genes (Applied Biosystems). The following TaqMan Gene Expression Assays were used in this study: Gusb (Mm00446953_m1), cFos (Mm00487425_m1), VEGFD (Mm00438965_m1), VEGFC (Mm01202432_m1), VEGF (Mm01281449_m1), VEGFR3 (Mm01292618_m1), beta-actin (Mm00607939_s1), beta-2 microglobulin (Mm00437762_m1), CBP (Mm01342435_m1), p38 MAPK alpha (Mm00442497_m1), p38 MAPK beta (Mm00440955_m1). Expression of target genes was normalized against the expression of Gusb as endogenous control gene. Data were derived from at least 5 independent experiments.

Compound	effect on the rVEGFD-induced rescue of dendrite length and complexity (hippocampal neurons; neurons expressing CaMBP4 (and CaMKIVK75E), treated for 3 days with rVEGFD)	Sholl analysis (hippocampal neurons; neurons expressing hrGFP, CaMBP4 or CaMKIVK75E, SB203580 without rVEGFD)	VEGFD expression (mRNA) (VEGFD)
C[S+]([O-])c1ccc(-c2nc(-c3ccncc3)c(-c3ccc(F)cc3)[nH]2)cc1 (stereo not drawn) [SB203580]	severely compromised the ability of rVEGFD to rescue the impairment of dendrite length and complexity	no difference compared to the respective untreated controls	
C[C@]12N[C@H](Cc3ccccc31)c1ccccc12 [MK801]			significantly reduced the expression of VEGFD mRNA
